Molecular target: T1, PH ([325-451]ASAP1) (Mus musculus, UniProt Q9QWY8)
T1 sequence (Q9QWY8 325-451): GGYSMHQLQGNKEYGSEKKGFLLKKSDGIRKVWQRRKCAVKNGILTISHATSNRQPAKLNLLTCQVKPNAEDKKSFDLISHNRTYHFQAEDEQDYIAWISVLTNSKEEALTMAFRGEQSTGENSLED
Test: isothermal titration calorimetry
Assay type: binding

Kd: 75 ± 15 µM
Structure (SMILES): O=P(O)(O)O[C@@H]1[C@H](O)[C@H](O)[C@@H](OP(=O)(O)O)[C@H](OP(=O)(O)O)[C@H]1O [IP3]
